For 14 compounds, IC50 results are on record in patent publication US20170022171A1, “2,5-DISUBSTITUTED CYCLOPENTANECARBOXYLIC ACIDS AND THEIR USE” (Bayer Pharma Aktiengesellschaft, priority 2014, published 2017).

A word on the IC50: it is the concentration needed to halve the response being measured. Low values mean greater potency in that assay, high ones weaker potency in that assay.

What all share (assay type): biochemical
The target in one experiment is T1, MMP-1 (Homo sapiens, UniProt P03956).
T1 construct: purchased R&D Systems 901-MP
T1 sequence (P03956 100-469): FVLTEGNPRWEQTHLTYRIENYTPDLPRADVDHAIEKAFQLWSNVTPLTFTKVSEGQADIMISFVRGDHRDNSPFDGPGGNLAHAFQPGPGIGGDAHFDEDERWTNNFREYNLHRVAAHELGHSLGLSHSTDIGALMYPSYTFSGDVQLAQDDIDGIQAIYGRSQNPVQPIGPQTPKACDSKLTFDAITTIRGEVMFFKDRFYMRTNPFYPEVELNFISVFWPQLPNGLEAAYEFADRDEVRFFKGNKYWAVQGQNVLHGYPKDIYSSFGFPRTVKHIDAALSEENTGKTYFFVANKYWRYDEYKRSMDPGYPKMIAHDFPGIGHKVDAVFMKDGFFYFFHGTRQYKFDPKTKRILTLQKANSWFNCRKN
The experiment is described as follows: In vitro MMP-1 inhibition test. An excerpt: (§1) The MMP-mediated amidolytic cleavage of a suitable peptide substrate leads to an increase in fluorescent light here too. The signal intensity of the fluorescent light is directly proportional to the enzyme activity. The active concentration of a test compound at which half the enzyme is inhibited (50% signal intensity of the fluorescent light) is reported as the IC50 value.
(§2) Recombinant MMP-1 (from R&D Systems, 901-MP) is chemically activated in accordance with the manufacturer's instructions using APMA. 1 μl of the test compound to be analysed (as a solution in DMSO, suitable concentrations, for example, 1 nM to 30 μM) is pipetted into 24 μl of activated enzyme (final concentration, for example, 2 nM) in reaction buffer (50 mM Tris/HCl pH 7.5, 10 mM CaCl2, 150 mM NaCl, 0.05% Brij®-35) in a white 384-hole microtiter plate (MTP). The enzymatic reaction is started by adding the intramolecularly quenched Mca-Pro-Leu-Gly-Leu-Dpa(Dnp)-Ala-Arg-NH2 substrate (final concentration, for example, 10 μM; R&D Systems, ES-001), so as to result in a total test volume of 50 μl. The course of the MMP-1 reaction is measured by measuring the fluorescence intensity (excitation 320 nm, emission 410 nm) over a suitable period of time (for example over 120 min at a temperature of 32° C.).

The next experiment deals with T2, MMP-14 (Homo sapiens, UniProt P50281).
T2 construct: purchased R&D Systems 918-MP
As to the kind of experiment: In vitro MMP-14 inhibition test.
Text: as §1
Recombinant MMP-14 (from R&D Systems, 918-MP) is enzymatically activated in accordance with the manufacturer's instructions using recombinant furin (from R&D Systems, 1503-SE). 1 μl of the test compound to be analysed (as a solution in DMSO, suitable concentrations e.g. 1 nM to 30 μM) is pipetted into 24 μl of activated enzyme (final concentration e.g. 0.5 nM) in reaction buffer (50 mM Tris/HCl pH 7.5, 10 mM CaCl2, 150 mM NaCl, 0.05% Brij®-35) in a white 384-hole microtiter plate (MTP). The enzymatic reaction is started by adding the intramolecularly quenched Mca-Lys-Pro-Leu-Gly-Leu-Dpa(Dnp)-Ala-Arg-NH2 substrate (final concentration, for example, 5 μM; R&D Systems, ES-010), so as to result in a total test volume of 50 The course of the MMP-14 reaction is measured by measuring the fluorescence intensity (excitation 320 nm, emission 410 nm) over a suitable period of time (for example over 120 min at a temperature of 32° C.).

The target of the next experiment is T3, MMP-13 (Homo sapiens, UniProt P45452).
T3 construct: purchased R&D Systems 511-MP
The experiment is described as follows: In vitro MMP-13 inhibition test.
Text: as §1
as §2, with “Recombinant MMP-13” for “Recombinant MMP-1”, “Systems, 511-MP)” for “Systems, 901-MP)”, “example, 0.1” for “example, 2”, “50” for “50 μl.”, “the MMP-13” for “the MMP-1”

`COc1cccc(COc2ccc(C(=O)[C@@H]3CC[C@H](Cn4nnc5ccc(C)cc5c4=O)[C@H]3C(=O)O)cc2)c1` (single isomer, unassigned) [Example 107, (+)-(1RS,2RS,5SR)-2-{4-[(3-Methoxybenzyl)oxy]benzoyl}-5-[(6-methyl-4-oxo-1,2,3-benzotriazin-3(4H)-yl)methyl]cyclopentanecarboxylic acid]: the IC50 worked out at 11 µM on MMP-1, 0.29 µM at MMP-14 and 0.15 µM at MMP-13.

For `Cc1cccc(COc2ccc(C(=O)[C@H]3CC[C@@H](Cn4nnc5ccc(C(F)(F)F)cc5c4=O)[C@@H]3C(=O)O)cc2)c1` (racemic) [Example 15, (+/−)-(1RS,2RS,5SR)-2-{4-[(3-Methylbenzyl)oxy]benzoyl}-5-{[4-oxo-6-(trifluoromethyl)-1,2,3-benzotriazin-3(4H)-yl]methyl}cyclopentanecarboxylic acid], the IC50 was found to be 8.3 µM against MMP-1, 0.18 µM on MMP-14 and 0.64 µM at MMP-13.

For the compound `O=C(O)[C@@H]1[C@@H](Cn2nnc3ccc(C(F)(F)F)cc3c2=O)CC[C@H]1C(=O)c1ccc(OCc2ccc(Cl)cc2)cc1` (single isomer, unassigned) [Example 25, (+)-(1RS,2RS,5SR)-2-{4-[(4-Chlorobenzyl)oxy]benzoyl}-5-{[4-oxo-6-(trifluoromethyl)-1,2,3-benzotriazin-3(4H)-yl]methyl}cyclopentanecarboxylic acid], the IC50 at MMP-1 was determined as 2.3 µM; against MMP-14 it was 0.23 µM; at MMP-13, 0.045 µM.

For the compound `CCCCCSc1ccc(C(=O)[C@H]2CC[C@@H](Cn3nnc4ccc(C(F)(F)F)cc4c3=O)[C@@H]2C(=O)O)cc1` (racemic) [Example 88, (+/−)-(1RS,2SR,5RS)-2-{[4-Oxo-6-(trifluoromethyl)-1,2,3-benzotriazin-3(4H)-yl]methyl}-5-[4-(pentylsulphanyl)benzoyl]cyclopentanecarboxylic acid], the IC50 against MMP-1 is 2.5 µM; against MMP-14, 0.44 µM; on MMP-13 it was 0.23 µM.

For `O=C(O)[C@@H]1[C@@H](Cn2nnc3ccc(C(F)(F)F)cc3c2=O)CC[C@H]1C(=O)c1ccc(OCC2CCCC2)cc1` (single isomer, unassigned) [Example 44, (+)-(1RS,2RS,5SR)-2-[4-(Cyclopentylmethoxy)benzoyl]-5-{[4-oxo-6-(trifluoromethyl)-1,2,3-benzotriazin-3(4H)-yl]methyl}cyclopentanecarboxylic acid], the values for the IC50 on MMP-1, at MMP-14 and on MMP-13 were 3.6 µM, 0.088 µM and 0.058 µM, respectively.

Regarding `O=C(O)[C@@H]1[C@@H](Cn2nnc3ccc(C(F)(F)F)cc3c2=O)CC[C@H]1C(=O)c1ccc(OCc2ccc(F)cc2)cc1` (single isomer, unassigned) [Example 13, (+)-(1RS,2RS,5SR)-2-{4-[(4-Fluorobenzyl)oxy]benzoyl}-5-{[4-oxo-6-(trifluoromethyl)-1,2,3-benzotriazin-3(4H)-yl]methyl}cyclopentanecarboxylic acid], the IC50 against MMP-1 came to 3.3 µM; on MMP-14 it was 0.15 µM; at MMP-13 it was 0.033 µM.

For the compound `O=C(O)[C@@H]1[C@@H](Cn2nnc3ccc(C(F)(F)F)cc3c2=O)CC[C@H]1C(=O)c1ccc(OCc2cccc(C(F)(F)F)c2)cc1` (single isomer, unassigned) [Example 19, (+)-(1RS,2SR,5RS)-2-{[4-Oxo-6-(trifluoromethyl)-1,2,3-benzotriazin-3(4H)-yl]methyl}-5-(4-{[3-(trifluoromethyl)benzyl]oxy}benzoyl)cyclopentanecarboxylic acid], the values for the IC50 at MMP-1, against MMP-14 and on MMP-13 were 37 µM, 3 µM and 2.6 µM, respectively.

Turning to `Cc1cccc(COc2ccc(C(=O)[C@@H]3CC[C@H](Cn4nnc5ccc(C(F)(F)F)cc5c4=O)[C@H]3C(=O)O)cc2)c1` (single isomer, unassigned) [Example 16, (+)-(1RS,2RS,5SR)-2-{4-[(3-Methylbenzyl)oxy]benzoyl}-5-{[4-oxo-6-(trifluoromethyl)-1,2,3-benzotriazin-3(4H)-yl]methyl}cyclopentanecarboxylic acid], the IC50 against MMP-1 was 7.1 µM; against MMP-14, 0.32 µM; against MMP-13, 1 µM.

As for “(+)-(1RS,2RS,5SR)-2-{4-[Cyclohexyl)methyl)sulphanyl]benzoyl}-5-{[4-oxo-6-(trifluoromethyl)-1,2,3-benzotriazin-3(4H)-yl]methyl}cyclopentanecarboxylic acid [Example 86]”, the IC50 on MMP-1 amounted to 27 µM; against MMP-14, 3.9 µM; against MMP-13, 6.6 µM.

As for `O=C(O)[C@@H]1[C@@H](Cn2nnc3ccc(C(F)(F)F)cc3c2=O)CC[C@H]1C(=O)c1ccc(OCc2cccc(N3CCOC3=O)c2)cc1` (single isomer, unassigned) [Example 35, (+)-(1RS,2RS,5SR)-2-(4-{[3-(2-Oxo-1,3-oxazolidin-3-yl)benzyl]oxy}benzoyl)-5-{[4-oxo-6-(trifluoromethyl)-1,2,3-benzotriazin-3(4H)-yl]methyl}cyclopentanecarboxylic acid], the IC50 on MMP-1 was 2.1 µM; at MMP-14, 0.17 µM; at MMP-13, 0.053 µM.

For the compound `CCCCCCOc1ccc(C(=O)[C@@H]2CC[C@H](Cn3nnc4ccc(C(F)(F)F)cc4c3=O)[C@H]2C(=O)O)cc1` (single isomer, unassigned) [Example 58, (+)-(1RS,2RS,5SR)-2-[4-(Hexyloxy)benzoyl]-5-{[4-oxo-6-(trifluoromethyl)-1,2,3-benzotriazin-3(4H)-yl]methyl}cyclopentanecarboxylic acid], the values for the IC50 on MMP-1, against MMP-14 and at MMP-13 were 8.4 µM, 1.3 µM and 0.44 µM, respectively.

Take `COc1cccc(COc2ccc(C(=O)[C@H]3CC[C@@H](Cn4nnc5ccc(C)cc5c4=O)[C@@H]3C(=O)O)cc2)c1` (racemic) [Example 106, (+/−)-(1RS,2RS,5SR)-2-{4-[(3-Methoxybenzyl)oxy]benzoyl}-5-[(6-methyl-4-oxo-1,2,3-benzotriazin-3(4H)-yl)methyl]cyclopentanecarboxylic acid]: the figures for the IC50 against MMP-1, against MMP-14 and at MMP-13 were 12 µM, 0.18 µM and 0.12 µM, respectively.

Turning to `O=C(O)[C@@H]1[C@@H](Cn2nnc3ccc(C(F)(F)F)cc3c2=O)CC[C@H]1C(=O)c1ccc(OCCC2CCCC2)cc1` (single isomer, unassigned) [Example 55, (+)-(1RS,2RS,5SR)-2-[4-(2-Cyclopentylethoxy)benzoyl]-5-{[4-oxo-6-(trifluoromethyl)-1,2,3-benzotriazin-3(4H)-yl]methyl}cyclopentanecarboxylic acid], the IC50 on MMP-1 is 15 µM; against MMP-14 it was 2.4 µM; against MMP-13 it was 1.7 µM.

For the compound `O=C(O)[C@H]1[C@H](Cn2nnc3ccc(C(F)(F)F)cc3c2=O)CC[C@@H]1C(=O)c1ccc(OCc2cccc(C(F)(F)F)c2)cc1` (racemic) [Example 18, (+/−)-(1RS,2SR,5RS)-2-{[4-Oxo-6-(trifluoromethyl)-1,2,3-benzotriazin-3(4H)-yl]methyl}-5-(4-{[3-(trifluoromethyl)benzyl]oxy}benzoyl)cyclopentanecarboxylic acid], the IC50 on MMP-1 was above 40 µM; against MMP-14 it was 1 µM; against MMP-13, 1.4 µM.
